Consider 11 compounds from patent US20220213047A1, “CARBONIC ANHYDRASE INHIBITORS FOR TREATMENT OF NEISSERIA GONORRHOEAE INFECTION” (Purdue Research Foundation, priority 2021, published 2022).

The test system of the assay is N. gonorrhoeae. The experiment in a line: MIC against N. gonorrhoeae clinical isolates, normal and CO2 conditions. Type of assay: cell-based. The note with it: Neisseria gonorrhoeae. The protocol:
These tests were performed in normal culture conditions with standard CO2 levels and in CO2 (5% in incubator) conditions.

The mark [1] stands for this setting: N. gonorrhoeae 178, Non CO2 environment.
Setting [2] is: N. gonorrhoeae 178, normal growth environment (with CO2).
Where [3] appears, read: N. gonorrhoeae 181, Non CO2 environment.
[4] abbreviates: N. gonorrhoeae 181, normal growth environment (with CO2).
[5] abbreviates: N. gonorrhoeae 194, Non CO2 environment.
Setting [6] is: N. gonorrhoeae 194, normal growth environment (with CO2).

Structures are written as SMILES. ≈ marks a conversion by molar mass, not a printed value.

On to `CCC(=O)Nc1nnc(S(N)(=O)=O)s1` [CAI 009], for which the MIC (usually the smallest concentration in the dilution series that meets the test's criterion for growth inhibition) was 8 µg/mL (≈ 33.9 µM) under setting [1]; 16 µg/mL (≈ 67.7 µM) under setting [2]; 8 µg/mL (≈ 33.9 µM) under setting [3]; over 64 µg/mL under setting [4]; 16 µg/mL (≈ 67.7 µM) under setting [5]; 64 µg/mL (≈ 271 µM) under setting [6].

Compound `NS(=O)(=O)c1nnc(NC(=O)C2CC2)s1` [CAI 0020] returned an MIC under setting [1] of 2 µg/mL (≈ 8.06 µM); an MIC under setting [2] of 64 µg/mL (≈ 258 µM); an MIC under setting [3] of 2 µg/mL (≈ 8.06 µM); an MIC under setting [4] of 64 µg/mL (≈ 258 µM); an MIC under setting [5] of 4 µg/mL (≈ 16.1 µM); an MIC under setting [6] of over 64 µg/mL.

As to `CCN[C@H]1C[C@H](C)S(=O)(=O)c2sc(S(N)(=O)=O)cc21` [Dorzolamide], the MIC was 32 µg/mL (≈ 98.6 µM) under setting [1]; over 64 µg/mL under setting [2]; over 64 µg/mL under setting [3]; over 64 µg/mL under setting [4]; over 64 µg/mL under setting [5]; over 64 µg/mL under setting [6].

Turning to `CC(=O)Nc1ccc(S(N)(=O)=O)cc1` [CAI 0030], the MIC is 8 µg/mL (≈ 37.3 µM) under setting [1]; over 64 µg/mL under setting [2]; 32 µg/mL (≈ 149 µM) under setting [3]; over 64 µg/mL under setting [4]; 16 µg/mL (≈ 74.7 µM) under setting [5]; over 64 µg/mL under setting [6].

`CCN[C@H]1CN(CCCOC)S(=O)(=O)c2sc(S(N)(=O)=O)cc21` [Brinzolamide]: the MIC under setting [1] is over 64 µg/mL; the MIC under setting [2] was over 64 µg/mL; the MIC under setting [3] is over 64 µg/mL; the minimum inhibitory concentration (MIC) under setting [4] is over 64 µg/mL; the MIC under setting [5] is over 64 µg/mL; the MIC under setting [6] is over 64 µg/mL.

In turn, `NS(=O)(=O)c1nnc(NC(=O)CC2CCCC2)s1` [CAI 0021] came in with an MIC under setting [1] of 2 µg/mL (≈ 6.89 µM); an MIC under setting [2] of 64 µg/mL (≈ 220 µM); a minimal inhibitory concentration (MIC) under setting [3] of 1 µg/mL (≈ 3.44 µM); an MIC under setting [4] of over 64 µg/mL; an MIC under setting [5] of 4 µg/mL (≈ 13.8 µM); an MIC under setting [6] of over 64 µg/mL.

`CC(C)C(=O)Nc1nnc(S(N)(=O)=O)s1` [CAI 0011]: the minimal inhibitory concentration (MIC) runs as follows: under setting [1], 16 µg/mL (≈ 63.9 µM); under setting [2], 32 µg/mL (≈ 128 µM); under setting [3], 16 µg/mL (≈ 63.9 µM); under setting [4], over 64 µg/mL; under setting [5], 8 µg/mL (≈ 32 µM); under setting [6], 64 µg/mL (≈ 256 µM).

Take `CCNc1nnc(S(N)(=O)=O)s1` [CAI 0032]: the MIC under setting [1] was determined as 64 µg/mL (≈ 307 µM); the MIC under setting [2] was over 64 µg/mL; the MIC under setting [3] is over 64 µg/mL; the MIC under setting [4] was over 64 µg/mL; the MIC under setting [5] is over 64 µg/mL; the MIC under setting [6] is over 64 µg/mL.

`CN1CCN(CC(=O)Nc2nnc(S(N)(=O)=O)s2)CC1` [CAI 0036] registered an MIC under setting [1] of 64 µg/mL (≈ 200 µM); a minimum inhibitory concentration (MIC) under setting [2] of over 64 µg/mL; an MIC under setting [3] of over 64 µg/mL; an MIC under setting [4] of over 64 µg/mL; an MIC under setting [5] of over 64 µg/mL; an MIC under setting [6] of over 64 µg/mL.

As to `NS(=O)(=O)c1nnc(NC(=O)c2cccc(C(F)(F)F)c2)s1` [CAI 0038], the MIC reads like this: under setting [1], 1 µg/mL (≈ 2.84 µM); under setting [2], over 64 µg/mL; under setting [3], 4 µg/mL (≈ 11.4 µM); under setting [4], 64 µg/mL (≈ 182 µM); under setting [5], 2 µg/mL (≈ 5.68 µM); under setting [6], over 64 µg/mL.

`NS(=O)(=O)c1nnc(NC(=O)C2CCCCC2)s1` [CAI 0022]: the MIC by setting is: under setting [1], 4 µg/mL (≈ 13.8 µM); under setting [2], 32 µg/mL (≈ 110 µM); under setting [3], 2 µg/mL (≈ 6.89 µM); under setting [4], 64 µg/mL (≈ 220 µM); under setting [5], 4 µg/mL (≈ 13.8 µM); under setting [6], over 64 µg/mL.
